Data published in ChEMBL document CHEMBL3046567, “Potential applications of violacein: a microbial pigment” (Med Chem Res, 2012).
pEC50, pIC50: −log10 of the molar value. Converted amounts (≈) assume the structure as drawn.

Key:
Mus musculus [1] = experiment: Inhibition of HCl/ethanol- induced gastric damage in Mus musculus (mouse) at 30 mg/kg; type: functional; conditions: Stomach
Leishmania amazonensis [2] = experiment: Antiparasitic activity against Leishmania amazonensis MHOM/BR /77/LTB0016 after 24 hr; type: functional, organism-based; conditions: MHOM/BR /77/LTB0016, 24 h
Leishmania amazonensis [3] = experiment: Antiparasitic activity against Leishmania amazonensis MHOM/BR /77/LTB0016 promastigote at 16.8 uM; type: functional
MOLT-4 = experiment: Cytotoxicity against Homo sapiens (human) MOLT4 cells; type: functional
Trypanosoma cruzi = experiment: Antitrypanosomal activity against trypomastigote of Trypanosoma cruzi Y infected in albino mouse assessed as reduction in parasitemia at 100 mg/kg, ip for 7 days; type: functional; conditions: 168 h, route intraperitoneal
Mus musculus [4] = experiment: Inhibition of HCl/ethanol- induced gastric damage in Mus musculus (mouse) at 10 mg/kg, po, sd; type: functional; conditions: Stomach
Enterovirus C = experiment: Antiviral activity against Enterovirus C (Poliovirus) infected HeLa cells at 0.063 ug/ml; type: functional
[5] = Cytotoxicity against Mus musculus (mouse) EAT cells; type: functional, cell-based
Vero = experiment: Cytotoxicity against […] Vero cells; type: cell-based; conditions: Chlorocebus sabaeus
U-937 = experiment: Cytotoxicity against Homo sapiens (human) U937 cells; type: functional, cell-based
[6] = Cytotoxicity against Homo sapiens (human) Lymphocyte; type: cell-based
Leishmania amazonensis [7] = experiment: Antiparasitic activity against Leishmania amazonensis MHOM/BR /77/LTB0016 promastigote at 460.8 uM; type: functional
KM12 = experiment: Cytotoxicity against Homo sapiens (human) KM12 cells; type: functional
HT-29 = experiment: Cytotoxicity against Homo sapiens (human) HT-29 cells after 24 to 48 hr by MTT assay; type: functional, cell-based
Caco-2 = experiment: Cytotoxicity against Homo sapiens (human) Caco2 cells after 24 to 48 hr by MTT assay; type: functional, cell-based
HL-60 = experiment: Cytotoxicity against Homo sapiens (human) HL60 cells; type: functional, cell-based
HCT-116 = experiment: Cytotoxicity against Homo sapiens (human) HCT116 cells after 24 to 48 hr by MTT assay; type: functional, cell-based
V79 = experiment: Cytotoxicity against Cricetulus griseus V79 cells; type: functional, cell-based
NCI-H460 = experiment: Cytotoxicity against Homo sapiens (human) NCI-H460 cells; type: functional
[8] = test system: Mycobacterium tuberculosis; experiment: Antimycobacterial activity against Mycobacterium tuberculosis H37Rv; type: functional
[9] = Cytotoxicity against Macaca mulatta (Rhesus monkey) MA104 cells; type: cell-based
HEp-2 = experiment: Cytotoxicity against Homo sapiens (human) Hep2 cells; type: cell-based
[10] = Cytotoxicity against Macaca mulatta (Rhesus monkey) FRhK4 cells; type: cell-based; conditions: FRhK-4
K562 = experiment: Cytotoxicity against Homo sapiens (human) K562 cells; type: functional, cell-based
DLD-1 = experiment: Cytotoxicity against Homo sapiens (human) DLD1 cells after 24 to 48 hr by MTT assay; type: functional, cell-based

Q: With `Cc1c(OCC(F)(F)F)ccnc1C[S+]([O-])c1nc2ccccc2[nH]1` (configuration not stated) [LANSOPRAZOLE] as the compound, how does the inhibition in vivo at 30 mg/kg (Mus musculus [1]) read?
A: 63%

Q: With `N=C(N)c1ccc(OCCCCCOc2ccc(C(=N)N)cc2)cc1` [PENTAMIDINE] as the compound, how does the pEC50 (Leishmania amazonensis [2]) read?
A: 6.34

Q: What about the inhibition at 16.8 µM (Leishmania amazonensis [3]) of the same compound?
A: 100%

Q: What does the source list for `O=C1NC(c2c[nH]c3ccc(O)cc23)=C/C1=C1\C(=O)Nc2ccccc21` [VIOLACEIN]?
A: GI50 (MOLT-4): 30 nM; inhibition in vivo at 100 mg/kg (Trypanosoma cruzi): 4%; pEC50 (Leishmania amazonensis [2]): 5.37; inhibition in vivo at 10 mg/kg (Mus musculus [4]): 85%; inhibition at 0.063 µg/mL (Enterovirus C): 56%; pIC50 [5]: 5.30; pIC50 (Vero): 5.66; pIC50 (U-937): > 6.00; pIC50 [6]: 5.00; inhibition at 460.8 µM (Leishmania amazonensis [7]): 100%; GI50 (KM12): 30 nM; pIC50 (HT-29): < 5.82; pIC50 (Caco-2): < 5.82; pIC50 (HL-60): 6.10; pIC50 (HCT-116): < 5.82; pIC50 (V79): 5.30; GI50 (NCI-H460): 30 nM; MBC [8]: 128 µg/mL (≈ 373 µM); MIC [8]: 64 µg/mL (≈ 186 µM); pIC50 [9]: 5.66; pIC50 (HEp-2): 5.66; pIC50 [10]: 5.66; pIC50 (K562): > 6.00; pIC50 (DLD-1): < 5.82
